Experimental data taken from BindingDB's records for doi:10.7270/Q21V5CBG (NMMLSC, 2007).

What follows are compounds tested against T1, fMet-Leu-Phe receptor (Homo sapiens, UniProt P21462) (assay: FPR1 fluorescent ligand binding inhibitors, dose response, selectivity assay for FPRL1 ligand SAR project, cell-based, flow cytometry, IC50 (AID 762)).
T1 sequence (P21462 whole entry): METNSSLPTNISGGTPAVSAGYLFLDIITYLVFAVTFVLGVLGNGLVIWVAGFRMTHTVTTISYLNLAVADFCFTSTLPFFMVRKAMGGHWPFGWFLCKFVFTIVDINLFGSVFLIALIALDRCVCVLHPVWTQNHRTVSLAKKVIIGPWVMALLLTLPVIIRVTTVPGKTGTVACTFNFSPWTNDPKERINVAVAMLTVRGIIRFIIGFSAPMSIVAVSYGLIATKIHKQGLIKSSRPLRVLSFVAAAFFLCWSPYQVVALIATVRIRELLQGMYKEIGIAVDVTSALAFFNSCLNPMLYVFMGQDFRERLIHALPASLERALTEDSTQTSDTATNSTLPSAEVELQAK

| SMILES | Ki |
| --- | --- |
| O=C(N1CCN(c2nc(-c3ccccc3)c3ccccc3n2)CC1)C(F)(F)F [2,2,2-trifluoro-1-[4-(4-phenyl-2-quinazolinyl)-1-piperazinyl]ethanone] | > 37.6 µM |
| COc1ccc(-c2cc(C(F)(F)F)nc(N3CCN(Cc4ccccc4)CC3)n2)cc1OC [2-(4-benzylpiperazin-1-yl)-4-(3,4-dimethoxyphenyl)-6-(trifluoromethyl)pyrimidine] | > 31.7 µM |
| COc1ccc(-c2cc(C(F)(F)F)nc(N3CCN(c4ccccc4)CC3)n2)cc1OC [4-(3,4-dimethoxyphenyl)-2-(4-phenyl-1-piperazinyl)-6-(trifluoromethyl)pyrimidine] | > 32.7 µM |
| CCC(=O)Nc1cc(-c2cn3cccnc3n2)ccc1OC [N-(5-imidazo[1,2-a]pyrimidin-2-yl-2-methoxy-phenyl)propanamide] | > 49.1 µM |

Other lines, results leading:

| Ki | SMILES |
| --- | --- |
| > 27.2 µM | COc1ccc(-c2cc(C(F)(F)F)nc(N3CCN(C(c4ccccc4)c4ccccc4)CC3)n2)cc1OC [2-(4-benzhydrylpiperazin-1-yl)-4-(3,4-dimethoxyphenyl)-6-(trifluoromethyl)pyrimidine] |
| > 33 µM | CCOC(=O)N1CCN(c2nc(-c3ccc(OC)c(OC)c3)cc(C(F)(F)F)n2)CC1 [4-[4-(3,4-dimethoxyphenyl)-6-(trifluoromethyl)-2-pyrimidinyl]-1-piperazinecarboxylic acid ethyl ester] |
| > 47.2 µM | COc1ccc(-c2cn3cccnc3n2)cc1NC(=O)C1CC1 [MLS000045944] |
| > 43.3 µM | COc1ccc(-c2cn3cccnc3n2)cc1NC(=O)C1CCCC1 [MLS000045945] |
| > 37.4 µM | COc1ccc(CC(=O)Nc2cc(-c3cn4cccnc4n3)ccc2OC)cc1 [N-(5-imidazo[1,2-a]pyrimidin-2-yl-2-methoxy-phenyl)-2-(4-methoxyphenyl)acetamide] |
| > 46.9 µM | COc1ccc(-c2cn3cccnc3n2)cc1NC(=O)C(C)C [N-(5-imidazo[1,2-a]pyrimidin-2-yl-2-methoxy-phenyl)-2-methyl-propanamide] |
